Results reported in patent US20240043557A1, “A PLATFORM TO OBTAIN MONOCLONAL ANTIBODIES DIRECTED AGAINST PROCESSED TUMOR-SPECIFIC ANTIGENS” (Mediterranea Theranostic srl, priority 2020, published 2024).

B1: murine ADAM10 (endogenous in MTE 4-14 cells) (protein)
chain: TTLAERNTCQLYIQTDHLFFKYYGTREAVIAQISSHVKAIDTIYQTTDFSGIRNISFMVKRIRINTTSDEKDPTNPFRFPNIGVEKFLELNSEQNHDDYCLAYVFTDRDFDDGVLGLAWVGAPSGSSGGICEKSKLYSDGKKKSLNTGIITVQNYGSHVPPKVSHITFAHEVGHNFGSPHDSGTECTPGESKNLGQKENGNYIMYARATSGDKLNNNKFSLCSIRNISQVLEKKRNNCFVESGQPICGNGMVEQGEECDCGYSDQCKDDCCFDANQPEGKKCKLKPGKQCSPSQGPCCTAQCAFKSKSEKCRDDSDCAKEGICNGFTALCPASDPKPNFTDCNRHTQVCINGQCAGSICEKYDLEECTCASSDGKDDKELCHVCCMKKMAPSTCASTGSLQWSKQFSGRTITLQPGSPCNDFRGYCDVFMRCRLVDADGPLARLKKAIFSPQLYENIAEWIVAHWWAVLLMGIALIMLMAGFIKICSVHTPSSNPKLPPPKPLPGTLKRRRPPQPIQQPPRQRPRESYQMGHMRR
B2: siRNAs targeting MMP9: control siRNA targeting murine MMP9 (NM_013599, nt 1780-1798), SEQ ID NO: 59/60 (nucleic acid, listed as Mus musculus)
chain 1: GATCCCCCCGCAGACCAAGAGGGTTTTTCAAGAGAAAACCCTCTTGGTCTGCGGTTTTTGGAAA
chain 2: AGCTTTTCCAAAAACCGCAGACCAAGAGGGTTTTCTCTTGAAAAACCCTCTTGGTCTGCGGGGG
B3: ADAM10 siRNA: siRNA targeting murine ADAM10 (NM_007399.3, nt 292-309), SEQ ID NO: 57/58, expressed from pSUPER (nucleic acid, listed as Mus musculus)
chain 1: GATCCCCAGACATTATGAAGGATTATTTCAAGAGAATAATCCTTCATAATGTCTTTTTTGGAAA
chain 2: AGCTTTTCCAAAAAAGACATTATGAAGGATTATTCTCTTGAAATAATCCTTCATAATGTCTGGG

What was measured:
[1] = target: T1, ADAM10 (Mus musculus, UniProt O35598); test: Western blot of Trop-2 processing in MTE 4-14/Trop-2 transfectants upon ADAM10 inhibition; assay type: cell-based, murine; conditions: for effect on Trop-2 processing: MTE 4-14/Trop-2 transfectants, WB; for minimum concentration found to be effective in inhibiting Trop-2 cleavage: concentration used, GM6001 24 hours, G1254023X two doses every 24 hours for 48 hours; for concentration found effective (up to): inhibition of Trop-2 cleavage
T1 construct: endogenous in cells; host or cells: MTE 4-14 (transformed murine thymus cells) transfected with Trop-2
T1 sequence (O35598 215-749): B1 chain
Procedure: ADAM 10 activity was inhibited in the MTE 4-14/Trop-2 transfectants by treatment with chemical inhibitors or mRNA silencing, and the effect on Trop-2 processing and on Trop-2-dependent cell growth was evaluated.
A. WB analysis following treatment with the broad-spectrum metalloprotease inhibitor GM6001 or with the specific ADAM10 inhibitor G1254023X or ADAM10 siRNA silencing, as indicated. […] T2-p: processed Trop-2; na: native form; pr: processed form.
Western blotting was performed as described (El Sewedy, Fomaro et al. 1998). Tumors from experimental animals were rapidly frozen upon surgical removal and stored at −80° C. Frozen samples were quickly thawed and homogenized with a Dounce homogenizer. Cleared homogenates of tumors and cultured cell lysates were analyzed by SDS-PAGE and transferred to nitrocellulose filters. Filters were hybridized with anti-human Trop-2 (affinity-purified polyclonal rabbit antiserum) or anti-ADAM10 antibodies.
Cells were treated with ADAM10 inhibitors for 24 hours at the minimum concentration found to be effective in inhibiting Trop-2 cleavage, then assayed as indicated. The GM6001 metalloprotease family inhibitor (Calbiochem) was dissolved in DMSO and used at 6.5-13 μM for 24 hours; up to 50 μM GM6001 were found effective. The G1254023X selective ADAM10 inhibitor, dissolved in DMSO, was kindly provided by Dr. A. Ludwig. Cells received two doses (10 μM) every 24 hours for 48 hours; up to 20 μM G1254023X were found effective. Control cells received vehicle alone.
(§1) Complementary strategies were utilized for siRNA design. Briefly, Tuschl′ criteria were applied, i.e. position in the mRNA, GC content, base composition and flanking sequences (Elbashir, Harborth et al. 2001). Invitrogen (maidesigner.invitrogen.com/maiexpress/) provides a proprietary algorithm that performs a statistical analysis of the target sequence, based on sequence composition, nucleotide content and thermodynamic properties, and compares candidates with validated siRNA sequences. The Whitehead Institute web site (jura.wi.mit.edu/bioc/siRNAext/) combines Tuschl′ criteria with predictions of binding energies for both sense and antisense siRNAs and with BLAST filtering of cross-hybridizing sequences. The Sonnhammer procedure (sonnhammer.cgb.ki.se/siSearch/) performs data mining (siSearch) on validated siRNA databanks, using motif rules and energy parameters. siRNA were synthesized that were identified by more than one method or considered optimal by any of the procedures above. Annealed oligos were subcloned into the pSUPER vector, kindly provided by Dr. R. Bernard (Brummelkamp, Bernards et al. 2002), under the control of the RNA polymerase III H1 gene promoter. siRNA expression constructs were transiently transfected MTE 4-14 transfectants, and cell growth was measured. siRNA-targeted transcript levels were quantified by real-time PCR. Negative control siRNAs directed towards irrelevant targets were used; these were chosen after extensive testing for lack of off-target influence on cell growth.

[2] = system: metastatic triple-negative breast cancer (TNBC); conditions: patients with metastatic TNBC; cited from earlier work
[3] = target: T2, Trop-2 (wild-type human Trop-2, NCBI accession number NP_002344.2)
T2 chain: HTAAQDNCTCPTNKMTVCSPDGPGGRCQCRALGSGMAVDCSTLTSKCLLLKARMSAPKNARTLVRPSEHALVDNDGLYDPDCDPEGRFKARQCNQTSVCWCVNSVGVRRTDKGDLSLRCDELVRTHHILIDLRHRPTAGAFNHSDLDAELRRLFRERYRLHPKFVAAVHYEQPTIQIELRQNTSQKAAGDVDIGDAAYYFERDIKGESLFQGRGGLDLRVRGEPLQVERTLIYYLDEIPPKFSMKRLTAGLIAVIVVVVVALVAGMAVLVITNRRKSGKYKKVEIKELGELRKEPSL

[4] = system: MTE 4-14 cells; test: In vitro growth of MTE 4-14 transfectants upon siRNA-mediated inhibition; assay type: cell-based, murine
Procedure: C. In vitro growth curves of MTE 4-14 cells transfected with the empty vector, wtTrop-2 or R87A-T88A Trop-2 upon ADAM10 (upper graphs, black,), MMP9 (lower graphs, black,) or control (human CD133, gray), siRNA-mediated inhibition. Bars: SEM. The p value for the only significant difference (ANOVA analysis) is indicated. Stars indicate post-hoc Bonferroni's t test p values (*≤0.05, **≤0.001).
Cell transfectants were seeded at 1.5−3.0×10^3 cells/well in 96-well plates (five replica wells per data point). Cell numbers were quantified by staining with crystal violet. Cell numbers were normalized against a standard reference curve of two-fold serially diluted cell samples.
as §1, with “Negative control siRNAs directed towards irrelevant targets were used; these were chosen after extensive testing for lack of off-target influence on cell growth.” left out

Row | Molecule | effect on Trop-2 processing [1] | minimum concentration found to be effective in inhibiting Trop-2 cleavage [1] | concentration found effective (up to) [1] | other results
1 | CNC(=O)[C@@H](NC(=O)[C@H](CCCc1ccccc1)[C@H](C)N(O)C=O)C(C)(C)C [G1254023X] | reduction in Trop-2 processing | 10 µM | up to 20 μM | –
2 | CNC(=O)[C@H](Cc1c[nH]c2ccccc12)NC(=O)[C@@H](CC(=O)NO)CC(C)C [GM6001] | reduction in Trop-2 processing | 6.5 to 13 µM | up to 50 μM | –
3 | Sacituzumab govitecan-hziy | – | – | – | efficacy in patients [2]: effective
4 | B1 | – | – | – | Trop-2 processing (Western blot) after ADAM10 gene expression silencing by specific siRNAs [3]: Trop-2 processing was virtually abolished following ADAM10 silencing
5 | B2 | – | – | – | effect on cell proliferation ([4]; MTE 4-14 transfectants, siRNA targeting MMP9): no effect on cell proliferation
6 | B3 | inhibited Trop-2 processing | – | – | effect on in vitro growth of R87A-T88A or empty vector transfectants ([4]; MTE 4-14 R87A-T88A or empty vector transfectants): no effect; effect on in vitro growth of wtTrop-2 transfectants ([4]; MTE 4-14 wtTrop-2 transfectants): overrides Trop-2 dependent growth stimulus
